How the values were obtained:
[1] = target: T1, tTA / tetracycline-responsive promoter PhCMV*-1 (Escherichia coli, UniProt P04483); assay: SEAP assay in CHO-Triplet42 transfected with PhCMV*-1-SEAP (pMF111); format: cell-based; settings: CHO-Triplet42 + pMF111 (PhCMV*-1); antibiotic 2 μg/ml; 48 h
T1 construct: expressed in transfected cells; host or cells: CHO-Triplet42 (from CHO-TWIN1108)
Description: Chinese hamster ovary cells (CHO-K1, ATCC: CCL 61), and HeLa cells (ATCC: CRL-7923) as well as stable cell lines derived thereof were cultured as described before (Fussenegger et al., 1998, Nat. Biotechnol. 16,468-472) in the presence of appropriate antibiotics: G418 400 μg/ml; zeocin 100 μg/ml. Optimized CaPO4 protocols were used for high efficiency transient transfection of all cell lines (Fussenegger et al., 1998. Nat. Biotechnol. 16: 468-472). Transiently transfected cells were routinely analyzed after 48 h for CFP or SEAP expression using fluorescence microscopy and p-nitrophenolphosphate-based light absorbance timecourse, respectively, as described before (Fussenegger et al., 1998, Nat. Biotechnol. 16, 468-472; Berger et al., 1988, Gene 66, 1-10 b). For construction of stable CHO-ET1 and CHO-Triplet42 cell lines, CHO-Ki and CHO-TWIN1108 (Disclosed in PCT application no. 00/65080) were cotransfected with pWW35 and pZeoSV2 (invitrogen). CHO-ET11-SEAP was constructed by cotransfection of pWW38 and pSV2neo (Clontech) into CHO-ET11. The mixed populations were cloned using FACS-mediated single-cell-sorting (FACStar^Plus; Beckton Dickinson). For assessment of dose-response characteristics of PETR3-regulated gene expression, CHO-ET11-SEAP were cultured at cell densities of 50,000/ml for 48 h at various EM concentrations.
Other antibiotics were eluted from antibiotic test discs (Mast Diagnostica GmbH, Reinfeld, Germany, or bioMérieux, Geneva Switzerland) in cell culture medium at 37° C. for 12 h to reach a final concentration of 30 μg/ml. All macrolide antibiotics were used at a 2 μg/ml concentration unless indicated otherwise.

[2] = test system: PSV40 or PhCMV-driven SEAP expression constructs; assay: SEAP expression from constitutive PSV40 or PhCMV-driven constructs with erythromycin; format: cell-based; settings: data not shown

T1 sequence (P04483 whole entry, added parts left off): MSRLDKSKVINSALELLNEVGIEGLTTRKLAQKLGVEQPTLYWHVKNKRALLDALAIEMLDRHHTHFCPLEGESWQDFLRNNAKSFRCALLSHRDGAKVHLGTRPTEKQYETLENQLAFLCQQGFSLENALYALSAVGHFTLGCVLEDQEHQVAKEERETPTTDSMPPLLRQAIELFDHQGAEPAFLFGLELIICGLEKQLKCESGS

CC[C@H]1OC(=O)[C@H](C)[C@@H](O[C@H]2C[C@@](C)(OC)[C@@H](O)[C@H](C)O2)[C@H](C)[C@@H](O[C@@H]2O[C@H](C)C[C@H](N(C)C)[C@H]2O)[C@](C)(O)C[C@@H](C)C(=O)[C@H](C)[C@@H](O)[C@]1(C)O [Erythromycin]
SEAP activity [U/L] [1]: 195.1 ± 15.1 U/L | Influence on expression levels of PSV40 or PhCMV-driven SEAP expression constructs [2]: no influence

— US7273723B2, “Antibiotic-based gene regulation system” (priority 2001, dated 2007)
